Measurements taken from ChEMBL document CHEMBL1144896 (2003).

Legend:
Assay type in all cases: functional
[1] = tested on: NCI-H1299; assay: Compound was tested for human telomerase reverse transcriptase-SEAP (hTERT-SEAP) activity in non-small cell lung cancer H1299 cell at 22 uM concentration
[2] = tested on: NCI-H1299; assay: Compound was tested for human telomerase reverse transcriptase-SEAP (hTERT-SEAP) activity in non-small cell lung cancer H1299 cell at 220.0 uM concentration
[3] = tested on: BJ; assay: hTERT-SEAP (Human telomerase reverse transcriptase-SEAP) activity in immortalized hTERT-BJI at 22 uM concentration and level of cell viability determined in MTT assay
[4] = tested on: BJ; assay: hTERT-SEAP (Human telomerase reverse transcriptase-SEAP) activity in immortalized hTERT-BJI at 220.0 uM concentration and level of cell viability determined in MTT assay
[5] = tested on: BJ; assay: Compound was tested for human telomerase reverse transcriptase-SEAP (hTERT-SEAP) activity in immortalized hTERT-BJI at 220.0 uM concentration
[6] = tested on: NCI-H1299; assay: Compound was tested for human telomerase reverse transcriptase-SEAP (hTERT-SEAP) activity in non-small cell lung cancer H1299 cell at 2.2 uM concentration
[7] = tested on: NCI-H1299; assay: hTERT-SEAP (Human telomerase reverse transcriptase-SEAP) activity in non-small cell lung cancer H1299 cell at 2.2 uM concentration and level of cell viability determined in MTT assay
[8] = tested on: NCI-H1299; assay: hTERT-SEAP (Human telomerase reverse transcriptase-SEAP) activity in non-small cell lung cancer H1299 cell at 220.0 uM concentration and level of cell viability determined in MTT assay
[9] = tested on: BJ; assay: Compound was tested for human telomerase reverse transcriptase-SEAP (hTERT-SEAP) activity in immortalized hTERT-BJI at 2.2 uM concentration
[10] = tested on: BJ; assay: hTERT-SEAP (Human telomerase reverse transcriptase-SEAP) activity in immortalized hTERT-BJI at 2.2 uM concentration and level of cell viability determined in MTT assay
[11] = tested on: NCI-H1299; assay: hTERT-SEAP (Human telomerase reverse transcriptase-SEAP) activity in non-small cell lung cancer H1299 cell at 22 uM concentration and level of cell viability determined in MTT assay
[12] = tested on: BJ; assay: Compound was tested for human telomerase reverse transcriptase-SEAP (hTERT-SEAP) activity in immortalized hTERT-BJI at 22 uM concentration
[13] = tested on: BJ; assay: hTERT-SEAP (Human telomerase reverse transcriptase-SEAP) activity in immortalized hTERT-BJI at 210.0 uM concentration and level of cell viability determined in MTT assay
[14] = tested on: BJ; assay: Compound was tested for human telomerase reverse transcriptase-SEAP (hTERT-SEAP) activity in immortalized hTERT-BJI at 21 uM concentration
[15] = tested on: BJ; assay: Compound was tested for human telomerase reverse transcriptase-SEAP (hTERT-SEAP) activity in immortalized hTERT-BJI at 210.0 uM concentration
[16] = tested on: BJ; assay: Compound was tested for human telomerase reverse transcriptase-SEAP (hTERT-SEAP) activity in immortalized hTERT-BJI at 2.1 uM concentration
[17] = tested on: NCI-H1299; assay: hTERT-SEAP (Human telomerase reverse transcriptase-SEAP) activity in non-small cell lung cancer H1299 cell at 2.1 uM concentration and level of cell viability determined in MTT assay
[18] = tested on: NCI-H1299; assay: Compound was tested for human telomerase reverse transcriptase-SEAP (hTERT-SEAP) activity in non-small cell lung cancer H1299 cell at 210.0 uM concentration
[19] = tested on: NCI-H1299; assay: hTERT-SEAP (Human telomerase reverse transcriptase-SEAP) activity in non-small cell lung cancer H1299 cell at 210.0 uM concentration and level of cell viability determined in MTT assay
[20] = tested on: NCI-H1299; assay: Compound was tested for human telomerase reverse transcriptase-SEAP (hTERT-SEAP) activity in non-small cell lung cancer H1299 cell at 21 uM concentration
[21] = tested on: NCI-H1299; assay: Compound was tested for human telomerase reverse transcriptase-SEAP (hTERT-SEAP) activity in non-small cell lung cancer H1299 cell at 2.1 uM concentration
[22] = tested on: BJ; assay: hTERT-SEAP (Human telomerase reverse transcriptase-SEAP) activity in immortalized hTERT-BJI at 21 uM concentration and level of cell viability determined in MTT assay
[23] = tested on: NCI-H1299; assay: hTERT-SEAP (Human telomerase reverse transcriptase-SEAP) activity in non-small cell lung cancer H1299 cell at 21 uM concentration and level of cell viability determined in MTT assay
[24] = tested on: NCI-H1299; assay: Compound was tested for human telomerase reverse transcriptase-SEAP (hTERT-SEAP) activity in non-small cell lung cancer H1299 cell at 230.0 uM concentration
[25] = tested on: NCI-H1299; assay: Compound was tested for human telomerase reverse transcriptase-SEAP (hTERT-SEAP) activity in non-small cell lung cancer H1299 cell at 2.3 uM concentration
[26] = tested on: BJ; assay: Compound was tested for human telomerase reverse transcriptase-SEAP (hTERT-SEAP) activity in immortalized hTERT-BJI at 23 uM concentration
[27] = tested on: BJ; assay: hTERT-SEAP (Human telomerase reverse transcriptase-SEAP) activity in immortalized hTERT-BJI at 23 uM concentration and level of cell viability determined in MTT assay
[28] = tested on: BJ; assay: hTERT-SEAP (Human telomerase reverse transcriptase-SEAP) activity in immortalized hTERT-BJI at 230.0 uM concentration and level of cell viability determined in MTT assay
[29] = tested on: NCI-H1299; assay: hTERT-SEAP (Human telomerase reverse transcriptase-SEAP) activity in non-small cell lung cancer H1299 cell at 23 uM concentration and level of cell viability determined in MTT assay
[30] = tested on: NCI-H1299; assay: hTERT-SEAP (Human telomerase reverse transcriptase-SEAP) activity in non-small cell lung cancer H1299 cell at 230.0 uM concentration and level of cell viability determined in MTT assay
[31] = tested on: NCI-H1299; assay: hTERT-SEAP (Human telomerase reverse transcriptase-SEAP) activity in non-small cell lung cancer H1299 cell at 2.3 uM concentration and level of cell viability determined in MTT assay
[32] = tested on: NCI-H1299; assay: Compound was tested for human telomerase reverse transcriptase-SEAP (hTERT-SEAP) activity in non-small cell lung cancer H1299 cell at 23 uM concentration
[33] = tested on: BJ; assay: Compound was tested for human telomerase reverse transcriptase-SEAP (hTERT-SEAP) activity in immortalized hTERT-BJI at 230.0 uM concentration

Row | Compound | Relative SEAP activity [1] [%] | Relative SEAP activity [2] [%] | Relative viability [3] [%] | Relative viability [4] [%] | Relative SEAP activity [5] [%] | Relative SEAP activity [6] [%] | Relative viability [7] [%] | Relative viability [8] [%] | Relative SEAP activity [9] [%] | Relative viability [10] [%] | Relative viability [11] [%] | Relative SEAP activity [12] [%] | Relative viability [13] [%] | Relative SEAP activity [14] [%] | Relative SEAP activity [15] [%] | Relative SEAP activity [16] [%] | Relative viability [17] [%] | Relative SEAP activity [18] [%] | Relative viability [19] [%] | Relative SEAP activity [20] [%] | further results
1 | O=C1c2cccc(SCCc3ccccc3)c2C(=O)c2cccc(SCCc3ccccc3)c21 | 102 | 97 | 54 | 35 | 110 | 108 | 93 | 27 | 119 | 91 | 51 | 109 |  |  |  |  |  |  |  |  | 
2 | Cc1ccc(C(=O)Oc2cccc3c2C(=O)c2cccc(OC(=O)c4ccc(C)cc4)c2C3=O)cc1 |  |  |  |  |  |  |  |  |  |  |  |  | 56 | 126 | 99 | 130 | 61 | 95 | 32 | 95 | Relative SEAP activity [21]: 98%; Relative viability [22]: 98%; Relative viability [23]: 33%
3 | Nc1ccc(Sc2cccc3c2C(=O)c2cccc(Sc4ccc(N)cc4)c2C3=O)cc1 | 95 | 84 | 65 |  | 26 | 100 | 103 | 42 | 97 | 86 | 76 | 97 |  |  |  |  |  |  |  |  | 
4 | O=C1c2cccc(SCc3ccccc3)c2C(=O)c2cccc(SCc3ccccc3)c21 | 100 | 100 | 98 | 47 | 87 | 97 | 83 | 34 | 117 | 121 | 44 | 112 |  |  |  |  |  |  |  |  | 
5 | Nc1cccc(Sc2cccc3c2C(=O)c2cccc(Sc4cccc(N)c4)c2C3=O)c1 | 109 | 101 | 9 | 4 | 8 | 106 | 92 | 32 | 118 | 104 | 68 | 41 |  |  |  |  |  |  |  |  | 
6 | O=C1c2cccc(SCCCCCCO)c2C(=O)c2cccc(SCCCCCCO)c21 |  |  |  |  |  |  |  |  |  |  |  |  | 40 | 128 | 75 | 140 | 99 | 68 | 36 | 100 | Relative SEAP activity [21]: 110%; Relative viability [22]: 70%; Relative viability [23]: 94%
7 | Cc1ccc(Sc2cccc3c2C(=O)c2cccc(Sc4ccc(C)cc4)c2C3=O)cc1 | 103 | 90 | 77 | 22 | 87 | 117 | 84 | 25 | 132 | 111 | 41 | 109 |  |  |  |  |  |  |  |  | 
8 | Cc1cccc(C(=O)Oc2cccc3c2C(=O)c2cccc(OC(=O)c4cccc(C)c4)c2C3=O)c1 |  |  |  |  |  |  |  |  |  |  |  |  | 47 | 124 | 86 | 141 | 26 | 110 | 29 | 116 | Relative SEAP activity [21]: 104%; Relative viability [22]: 54%; Relative viability [23]: 28%
9 | CCCCCC(=O)Oc1cccc2c1C(=O)c1cccc(OC(=O)CCCCC)c1C2=O |  |  |  |  |  |  |  |  |  |  |  |  |  |  |  |  |  |  |  |  | Relative SEAP activity [24]: 95%; Relative SEAP activity [25]: 91%; Relative SEAP activity [26]: 149%; Relative viability [27]: 98%; Relative viability [28]: 62%; Relative viability [29]: 114%; Relative viability [30]: 106%; Relative viability [31]: 117%; Relative SEAP activity [32]: 95%; Relative SEAP activity [33]: 124%
10 | O=C(Oc1cccc2c1C(=O)c1cccc(OC(=O)c3ccccc3)c1C2=O)c1ccccc1 | 94 | 86 | 87 | 51 | 84 | 88 | 99 | 33 | 137 | 103 | 60 | 122 |  |  |  |  |  |  |  |  | 
11 | O=C(Cc1ccccc1)Oc1cccc2c1C(=O)c1cccc(OC(=O)Cc3ccccc3)c1C2=O |  |  |  |  |  |  |  |  |  |  |  |  | 64 | 125 | 100 | 129 | 91 | 142 | 30 | 101 | Relative SEAP activity [21]: 98%; Relative viability [22]: 97%; Relative viability [23]: 53%
12 | Cc1ccccc1C(=O)Oc1cccc2c1C(=O)c1cccc(OC(=O)c3ccccc3C)c1C2=O |  |  |  |  |  |  |  |  |  |  |  |  | 39 | 120 | 94 | 129 | 72 | 90 | 45 | 91 | Relative SEAP activity [21]: 97%; Relative viability [22]: 82%; Relative viability [23]: 36%
